# Laboratory results as given in patent US11161819B2, “Substituted tetrahydroisoquinoline compounds useful as GPR120 agonists” (Merck Sharp & Dohme Corp., priority 2016, dated 2021).
# Molecular target: T1, human GPR120 (Homo sapiens, UniProt Q5NUL3)
# T1 construct: expressed in transfected cells
# T1 sequence (Q5NUL3 1-361): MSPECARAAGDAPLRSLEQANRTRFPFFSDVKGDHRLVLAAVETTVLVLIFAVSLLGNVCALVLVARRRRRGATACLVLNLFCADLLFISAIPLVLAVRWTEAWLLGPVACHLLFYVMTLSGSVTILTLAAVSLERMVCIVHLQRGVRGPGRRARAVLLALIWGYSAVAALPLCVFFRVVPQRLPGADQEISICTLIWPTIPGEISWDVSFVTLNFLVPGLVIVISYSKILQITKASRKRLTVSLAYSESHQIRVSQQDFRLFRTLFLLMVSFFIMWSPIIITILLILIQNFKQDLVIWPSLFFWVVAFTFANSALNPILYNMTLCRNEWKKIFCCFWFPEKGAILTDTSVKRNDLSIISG
# Experiment: Human GPR120 IP1 Assay (inositol phosphate turnover, CisBio IP-One kit)
# Type: cell-based
# Settings: IP1 accumulation in CHO-K1 cells stably expressing the short form of human GPR120; 60 min compound incubation; 4-parameter fit; read-out: hGPR120 EC50
# How it was run: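 CHO-K1 cells stably expressing short-form human GPR120 were stimulated with compounds for 60 minutes at 37 degrees in stimulation buffer. IP1 accumulation measured by HTRF competitive immunoassay (665/620 nm ratio) against an IP1 standard curve, normalized to a reference compound; EC50 from 4-parameter fit.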
row,Compound,EC50 [nM]
1,"Cc1ccc(-n2nc(C)c(Cl)c2N2CCc3c(ccc(CCC(=O)O)c3F)C2)cc1 [Example 146, 3-{2-[4-chloro-3-methyl-1-(4-methylphenyl)-1H-pyrazol-5-yl]-5-fluoro-1,2,3,4-tetrahydroisoquinolin-6-yl}propanoic acid]",309
2,"Cc1cc(-c2cscn2)nc(N2CCc3c(ccc(CCC(=O)O)c3F)C2)c1C#N [Example 147, 3-[2-(3-Cyano-4-methyl-6-thiazol-4-yl-pyridin-2-yl)-5-fluoro-1,2,3,4-tetrahydro-isoquinolin-6-yl]-propionic acid]",141
3,"COc1cc(OC2CCC2)nc(N2CCc3c(ccc(CCC(=O)O)c3F)C2)c1F [Example 148, 3-(2-(6-cyclobutoxy-3-fluoro-4-methoxypyridin-2-yl)-5-fluoro-1,2,3,4-tetra-hydroisoquinolin-6-yl)propanoic acid]",9
4,"Cc1nc(OC2CCC2)cc(N2CCc3c(ccc(CCC(=O)O)c3F)C2)c1C#N [Example 149, 3-(2-(3-cyano-6-cyclobutoxy-2-methylpyridin-4-yl)-5-fluoro-1,2,3,4-tetrahydroisoquinolin-6-yl)propanoic acid]",33
5,"N#Cc1c(Cl)cc(OC2CCC2)cc1N1CCc2c(ccc(CCC(=O)O)c2F)C1 [Example 150, 3-{2-[3-chloro-2-cyano-5-(cyclobutyloxy)phenyl]-5-fluoro-1,2,3,4-tetrahydroisoquinolin-6-yl} propanoic acid]",16
6,"Cc1nc(N2CCc3c(ccc(CCC(=O)O)c3F)C2)nc(OC2CCC2)c1C#N [Example 151, 3-{2-[5-cyano-4-(cyclobutyloxy)-6-methylpyrimidin-2-yl]-5-fluoro-1,2,3,4-tetrahydroisoquino-lin-6-yl}propanoic acid]",34
7,"Cc1nc(OC2CCC2)nc(N2CCc3c(ccc(CCC(=O)O)c3F)C2)c1C#N [Example 152, 3-{2-[5-cyano-2-(cyclobutyloxy)-6-methylpyrimidin-4-yl]-5-fluoro-1,2,3,4-tetrahydroisoquino-lin-6-yl}propanoic acid]",69
8,"N#Cc1c(F)cc(OC2CCC2)cc1N1CCc2c(ccc(CCC(=O)O)c2Cl)C1 [Example 153, 3-{5-chloro-2-[2-cyano-5-(cyclobutyloxy)-3-fluorophenyl]-1,2,3,4-tetrahydroisoquinolin-6-yl}-propanoic acid]",87
9,"O=C(O)CCc1ccc2c(c1F)CCN(c1cccc(C3CC3)n1)C2 [Example 154, 3-[2-(6-cyclopropylpyridin-2-yl)-5-fluoro-1,2,3,4-tetrahydroiso-quinolin-6-yl]propanoic acid]",167
10,"N#Cc1c(F)cc(OC2CCC2)cc1N1CCc2c(ccc(CCC(=O)O)c2F)C1 [Example 155, 3-{2-[2-cyano-5-(cyclobutyloxy)-3-fluorophenyl]-5-fluoro-1,2,3,4-tetrahydroisoquinolin-6-yl}-propanoic acid]",17
11,"O=C(O)CCc1ccc2c(c1)CCN(c1cc(OC(F)(F)F)cc(Cl)c1Cl)C2 [Example 156, 3-{2-[2,3-dichloro-5-(trifluoro-methoxy)phenyl]-1,2,3,4-tetra-hydroisoquinolin-6-yl}propanoic acid]",62
12,"Cc1c(CCC(=O)O)ccc2c1CCN(c1cc(OC3CCC3)cc(F)c1C#N)C2 [Example 157, 3-{2-[2-cyano-5-(cyclobutyloxy) 3-fluorophenyl]-5-methyl-1,2,3,4-tetrahydroisoquinolin-6-yl}-propanoic acid]",15
